We go through 49 molecules from EP2892896B1 (Bristol-Myers Squibb Company, priority 2012, dated 2014).

One may read the Ki as a measure of affinity in units of concentration, obtained from inhibition or displacement.

The target in the assay is T1, human melanin concentrating hormone receptor (MCHR1) (Homo sapiens, UniProt Q99705, A5T/E4Q).
T1 construct: expressed in transfected cells; host or cells: HEK-293 (stably transfected), membranes
T1 sequence (Q99705 whole entry E4Q/A5T): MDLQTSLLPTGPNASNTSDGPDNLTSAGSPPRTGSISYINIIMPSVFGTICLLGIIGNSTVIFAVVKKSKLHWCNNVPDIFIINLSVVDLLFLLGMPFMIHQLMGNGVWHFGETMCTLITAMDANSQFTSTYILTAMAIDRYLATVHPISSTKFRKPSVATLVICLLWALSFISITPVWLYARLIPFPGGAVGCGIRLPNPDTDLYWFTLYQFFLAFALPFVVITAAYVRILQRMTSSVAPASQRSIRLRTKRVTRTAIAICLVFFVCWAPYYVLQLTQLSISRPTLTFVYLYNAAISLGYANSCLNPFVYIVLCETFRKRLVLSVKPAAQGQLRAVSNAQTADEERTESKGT
Briefly: Radioligand binding assay for assessment of MCHR1 activity. Particulars: membranes from HEK-293 cells expressing a mutated (E4Q, A5T) hMCHR1 receptor; competition with 0.06 - 0.1 nM [Phe13, [125I]Tyr19]-MCH; 90 min. On the procedure:
Radioligand Binding Assay for Assessment of MCHR1 Activity
An in vitro binding assay was used to determine the compound Ki value or ability to antagonize binding of a peptide agonist to the human melanin concentrating hormone receptor (MCHR1). […] Binding experiments were carried out with 0.5-1.0 µg of membrane protein incubated in a total of 0.2 mL in 25 mM HEPES (pH 7.4) with 10 mM MgCl2, 2 mM EGTA, and 0.1% BSA (Binding Buffer) for 90 min. For competition binding assays, reactions were carried out in the presence of with 0.06 - 0.1 nM [Phe^13, [^125I]Tyr^19]-MCH and increasing concentrations of unlabeled test molecules. […] Filters were dried, 0.05 mL MicroScint 20 was added to each well and radioactivity was subsequently quantified by scintillation counting on a TOPCOUNT® microplate scintillation counter (Packard). Inhibitory constants were determined by nonlinear least squares analysis using a four parameter logistic equation.
In turn, `COc1cc(N2CCC(Oc3ccc(C4CC4)cc3)C2=O)ccc1OC[C@@H](O)CS(C)(=O)=O` (stereo partly shown) [Example 64] gave a Ki of 0.032 µM.

As to `COc1cc(N2CCC(Oc3ccc(OC(F)(F)F)cc3)C2=O)ccc1OCCS(C)(=O)=O` (stereo not shown) [Example 65, 1-(3-Methoxy-4-(2-(methylsulfonyl)ethoxy)phenyl)-3-(4-(trifluoromethoxy)phenoxy)pyrrolidin-2-one], the inhibitory constant (Ki) is 0.008 µM.

Molecule `COc1cc(N2CCC(Oc3ccc(-c4ccccc4)cc3)C2=O)ccc1OCCS(C)(=O)=O` (stereo not shown) [Example 66] came in with a Ki of 0.002 µM.

Regarding `COc1cc(N2CCC(Oc3ccc(-c4ccccc4F)cc3)C2=O)ccc1OCCS(C)(=O)=O` (stereo not shown) [Example 67, 3-(2'-Fluorobiphenyl-4-yloxy)-1-(3-methoxy-4-(2-(methylsulfonyl)ethoxy)phenyl)pyrrolidin-2-one], affinity was put at a Ki of 0.006 µM.

`COc1cc(N2CCC(Oc3ccc(-c4cccc(F)c4)cc3)C2=O)ccc1OCCS(C)(=O)=O` (stereo not shown) [Example 68] gave an inhibition constant Ki of 0.005 µM.

Turning to `COc1cc(N2CCC(Oc3ccc(C4CC4)cc3)C2=O)ccc1OCCS(C)(=O)=O` (stereo not shown) [Example 70], the Ki was 0.007 µM.

The molecule `COc1cc(N2CC[C@@H](Oc3ccc(C4CC4)cc3)C2=O)ccc1OCCS(C)(=O)=O` [Example 71, (R)-3-(4-Cyclopropylphenoxy)-1-(3-methoxy-4-(2-(methylsulfonyl)ethoxy)phenyl)pyrrolidin-2-one] returned a Ki of 0.003 µM.

`CS(=O)(=O)CCOc1ccc(N2CCC(Oc3ccc(-c4ccccc4)cc3)C2=O)cc1OCCF` (stereo not shown) [Example 72] registered a Ki of 0.007 µM.

As to `COc1cc(N2CC[C@H](Oc3ccc(C4CC4)cc3)C2=O)ccc1OCCS(C)(=O)=O` [Example 73], the Ki was determined as 0.087 µM.

Regarding `COc1cc(N2CCC(Oc3ccc(C4CC4)cc3)C2=O)ccc1OCCS(=O)(=O)CC(C)(C)O` (stereo not shown) [Example 74], the Ki was determined as 0.064 µM.

In the case of `COc1cc(N2CCC(Oc3ccc(-c4ccccc4)cc3)C2=O)ccc1OCCS(=O)(=O)CC(C)(C)O` (stereo not shown) [Example 75], the Ki came to 0.013 µM.

`Cc1cc(N2CCC(Oc3ccc(C(F)(F)F)cc3)C2=O)ccc1OCC(C)(C)O` (stereo not shown) [Example 76] had an inhibition constant (Ki) of 0.026 µM.

Molecule `Cc1cc(N2CCC(Oc3ccc(OC(F)(F)F)cc3)C2=O)ccc1OCC(C)(C)O` (stereo not shown) [Example 77] yielded a Ki of 0.015 µM.

As to `Cc1cc(N2CC[C@H](Oc3ccc(OC(F)(F)F)cc3)C2=O)ccc1OCC(C)(C)O` [Example 78], the affinity corresponds to a Ki of 6 µM.

Take `Cc1cc(N2CC[C@@H](Oc3ccc(OC(F)(F)F)cc3)C2=O)ccc1OCC(C)(C)O` [Example 79]: affinity was put at a Ki of 0.011 µM.

`Cc1cc(N2CCC(Oc3ccc(-c4ccccc4)cc3)C2=O)ccc1OCC(C)(C)O` (stereo not shown) [Example 80] registered a Ki of 0.004 µM.

For `Cc1cc(N2CCC(Oc3ccc(CC(F)(F)F)cc3)C2=O)ccc1OCC(C)(C)O` (stereo not shown) [Example 81], affinity was put at a Ki of 0.022 µM.

`Cc1cc(N2CCC(Oc3ccc(C4CC4)cc3)C2=O)ccc1OCC(C)(C)O` (stereo not shown) [Example 82] yielded a Ki of 0.011 µM.

In the case of `Cc1cc(N2CC[C@H](Oc3ccc(C4CC4)cc3)C2=O)ccc1OCC(C)(C)O` [Example 83], the Ki was 0.168 µM.

As to `Cc1cc(N2CC[C@@H](Oc3ccc(C4CC4)cc3)C2=O)ccc1OCC(C)(C)O` [Example 84], the affinity, expressed as Ki, was 0.005 µM.

The molecule `Cc1cc(N2CCC(Oc3ccc(I)cc3)C2=O)ccc1OCC(C)(C)O` (stereo not shown) [Example 85] came in with a Ki of 0.022 µM.

As to `Cc1cc(N2CCC(Oc3ccc(C(F)(F)F)cn3)C2=O)ccc1OCC(C)(C)O` (stereo not shown) [Example 86], affinity was put at a Ki of 5 µM.

Regarding `Cc1cc(N2CCC(Oc3ccc(Br)nc3)C2=O)ccc1OCC(C)(C)O` (stereo not shown) [Example 87], the Ki was determined as 7 µM.

`Cc1cc(N2CCC(Oc3ccc(-c4ccccc4)nc3)C2=O)ccc1OCC(C)(C)O` (stereo not shown) [Example 88] registered a Ki of 0.045 µM.

In turn, `Cc1cc(N2CCC(Oc3ccc(-c4ccncc4)cc3)C2=O)ccc1OCC(C)(C)O` (stereo not shown) [Example 89] displayed a Ki of 0.037 µM.

`Cc1cc(N2CCC(Oc3ccc(-c4ccccc4)cc3)C2=O)ccc1OCC1(O)CC(F)(F)C1` (stereo not shown) [Example 90]: affinity was put at a Ki of 0.01 µM.

On to `CCS(=O)(=O)C[C@@H](O)COc1ccc(N2CCC(Oc3ccc(-c4ccccc4)cc3)C2=O)cc1C` (stereo partly shown) [Example 91], for which the Ki was found to be 0.007 µM.

In the case of `CCS(=O)(=O)C[C@@H](O)COc1ccc(N2CCC(Oc3ccc(-c4ccc(F)cc4)cc3)C2=O)cc1C` (stereo partly shown) [Example 92], the Ki turned out to be 0.022 µM.

As for `CCS(=O)(=O)C[C@@H](O)COc1ccc(N2CCC(Oc3ccc(C4CC4)cc3)C2=O)cc1C` (stereo partly shown) [Example 93], the Ki came out at 0.057 µM.

Molecule `CCS(=O)(=O)C[C@@H](O)COc1ccc(N2CCC(Oc3ccc(OC(F)(F)F)cc3)C2=O)cc1C` (stereo partly shown) [Example 94] had a Ki of 0.714 µM.

Molecule `Cc1cc(N2CCC(Oc3ccc(-c4ccccc4)cc3)C2=O)ccc1OC[C@H](O)CS(C)(=O)=O` (stereo partly shown) [Example 95] had a Ki of 0.015 µM.

The molecule `Cc1cc(N2CCC(Oc3ccc(-c4ccc(F)cc4)cc3)C2=O)ccc1OC[C@H](O)CS(C)(=O)=O` (stereo partly shown) [Example 96] yielded an inhibition constant Ki of 0.022 µM.

Consider `Cc1cc(N2CCC(Oc3ccc(C4CC4)cc3)C2=O)ccc1OC[C@H](O)CS(C)(=O)=O` (stereo partly shown) [Example 97], for which the Ki came to 0.079 µM.

Molecule `Cc1cc(N2CCC(Oc3ccc(C(F)(F)F)cc3)C2=O)ccc1OC[C@H](O)CS(C)(=O)=O` (stereo partly shown) [Example 98] had a Ki of 1.43 µM.

`Cc1cc(N2CCC(Oc3ccc(-c4ccc(F)cc4)cc3)C2=O)ccc1OC[C@@H](O)CS(C)(=O)=O` (stereo partly shown) [Example 99] came in with a Ki of 0.019 µM.

`Cc1cc(N2CCC(Oc3ccc(C4CC4)cc3)C2=O)ccc1OC[C@@H](O)CS(C)(=O)=O` (stereo partly shown) [Example 100] yielded a Ki of 0.042 µM.

In the case of `Cc1cc(N2CCC(Oc3ccc(-c4ccccc4)cc3)C2=O)ccc1OCC[S+](C)[O-]` (stereo not shown) [Example 102], the Ki was determined as 0.006 µM.

`Cc1cc(N2CCC(Oc3ccc(OC(F)(F)F)cc3)C2=O)ccc1OCCS(C)(=O)=O` (stereo not shown) [Example 103] yielded a Ki of 0.04 µM.

`Cc1cc(N2CCC(Oc3ccc(-c4ccccc4)cc3)C2=O)ccc1OCCS(C)(=O)=O` (stereo not shown) [Example 104] displayed a Ki of 0.001 µM.

In turn, `Cc1cc(N2CCC(Oc3ccc(-c4cccc(F)c4)cc3)C2=O)ccc1OCCS(C)(=O)=O` (stereo not shown) [Example 108] returned a Ki of 0.005 µM.

In the case of `Cc1cc(N2CCC(Oc3ccc(-c4ccc(F)cc4)cc3)C2=O)ccc1OCCS(C)(=O)=O` (stereo not shown) [Example 109], affinity was put at a Ki of 0.006 µM.

In turn, `Cc1cc(N2CC[C@@H](Oc3ccc(-c4ccc(F)cc4)cc3)C2=O)ccc1OCCS(C)(=O)=O` [Example 110] came in with a Ki of 0.003 µM.

For `Cc1cc(N2CC[C@H](Oc3ccc(-c4ccc(F)cc4)cc3)C2=O)ccc1OCCS(C)(=O)=O` [Example 111], the Ki was 1.74 µM.

With `Cc1cc(N2CCC(Oc3ccc(C(F)(F)F)cc3)C2=O)ccc1OCCS(C)(=O)=O` (stereo not shown) [Example 112], the Ki was 0.031 µM.

`Cc1cc(N2CC=C(Oc3ccc(OC(F)(F)F)cc3)C2=O)ccc1OCC(C)(C)O` [Example 117] gave a Ki of 0.025 µM.

Regarding `Cc1cc(N2CC=C(Oc3ccc(C4CC4)cc3)C2=O)ccc1OCC(C)(C)O` [Example 118], affinity was put at a Ki of 0.009 µM.

In turn, `COc1cc(N2CC=C(Oc3ccc(C4CC4)cc3)C2=O)ccc1OCC(C)(O)CO` (stereo not shown) [Example 119] had a Ki of 0.004 µM.

Molecule `COc1cc(N2CC=C(Oc3ccc(C4CC4)cc3)C2=O)ccc1OC[C@H](O)C1CC1` [Example 121] had a Ki of 0.002 µM.

Turning to `COc1cc(N2CC=C(Oc3ccc(-c4ccccc4)cc3)C2=O)ccc1OCC(C)(C)O` [Example 122], the Ki is 0.003 µM.
